# Data reported in ChEMBL document CHEMBL1138059, “Discovery of a nanomolar inhibitor of the human murine double minute 2 (MDM2)-p53 interaction through an integrated, virtual database screening strategy” (J Med Chem, 2006).
# pKi: −log10 of the molar value. Active and inactive are the calls of the source. No cut-off for these calls is given here.
# Assays:
# HCT-116 [1] = assay: Induction of p53 accumulation in HCT116 cells expressing wild type p53; type: functional, cell-based; conditions: Homo sapiens
# HCT-116 [2] = assay: Induction of p21 accumulation in HCT116 cells expressing wild type p53; type: functional, cell-based; conditions: Homo sapiens
# HCT-116 [3] = assay: Induction of MDM2 accumulation in HCT116 cells expressing wild type p53; type: functional, cell-based; conditions: Homo sapiens
# [4] = biological target: E3 ubiquitin-protein ligase Mdm2 (Homo sapiens, UniProt Q00987)
# HCT-116 [5] = assay: Induction of p53 accumulation in isogenic HCT116 p53-/- cells; type: functional, cell-based; conditions: Homo sapiens
# HCT-116 [6] = assay: Induction of p21 accumulation in isogenic HCT116 p53-/- cells; type: functional, cell-based; conditions: Homo sapiens
# HCT-116 [7] = assay: Induction of MDM2 accumulation in isogenic HCT116 p53-/- cells; type: functional, cell-based; conditions: Homo sapiens
# E3 ubiquitin-protein ligase Mdm2, sequence (Q00987 whole entry): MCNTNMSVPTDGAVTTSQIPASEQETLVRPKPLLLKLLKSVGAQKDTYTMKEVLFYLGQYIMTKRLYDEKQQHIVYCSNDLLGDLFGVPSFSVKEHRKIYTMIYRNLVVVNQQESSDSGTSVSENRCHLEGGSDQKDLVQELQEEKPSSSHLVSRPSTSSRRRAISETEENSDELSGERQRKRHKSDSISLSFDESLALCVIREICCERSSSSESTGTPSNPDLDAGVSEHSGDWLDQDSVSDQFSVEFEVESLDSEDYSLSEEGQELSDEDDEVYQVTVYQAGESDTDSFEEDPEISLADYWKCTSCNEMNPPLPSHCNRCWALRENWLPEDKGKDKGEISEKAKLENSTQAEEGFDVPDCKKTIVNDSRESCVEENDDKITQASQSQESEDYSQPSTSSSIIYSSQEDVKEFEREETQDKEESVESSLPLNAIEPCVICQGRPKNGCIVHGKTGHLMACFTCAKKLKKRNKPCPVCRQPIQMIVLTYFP
structure (smiles),measurement,setting,value
Cc1ccc2ccc(C(Nc3ccccc3)c3ccccc3)c(O)c2n1 (configuration not stated),Activity,HCT-116 [1],Dose-dependent effect
same,Activity,HCT-116 [2],Dose-dependent effect
same,Activity,HCT-116 [3],Dose-dependent effect
same,pKi,[4],6.92
same,Activity,HCT-116 [5],inactive
same,Activity,HCT-116 [6],inactive
same,Activity,HCT-116 [7],inactive
